One series concerns the target T1, GSK-3β (AA 1-420) (Homo sapiens, UniProt P49841).
T1 construct: GSK-3β (AA 1-420)
The series is described as follows: Ki determination for the inhibition of GSK-3 (coupled enzyme system). In kind it is biochemical. As to conditions: 20 μM ATP, 20 nM GSK-3β, 30° C. The gist of the method:
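GSK-3β (AA 1-420, 20 nM) was run in a pyruvate kinase/LDH-coupled NADH assay in 100 mM HEPES pH 7.5, 10 mM MgCl2, 25 mM NaCl, 1 mM DTT, 1.5% DMSO, with 300 μM phosphopeptide substrate. Compound (0.002–30 μM) was preincubated 10 min at 30° C, then 20 μM ATP was added.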

The next series concerns the target T2, Aurora-2 (Homo sapiens, UniProt O14965).
T2 sequence (O14965 1-403): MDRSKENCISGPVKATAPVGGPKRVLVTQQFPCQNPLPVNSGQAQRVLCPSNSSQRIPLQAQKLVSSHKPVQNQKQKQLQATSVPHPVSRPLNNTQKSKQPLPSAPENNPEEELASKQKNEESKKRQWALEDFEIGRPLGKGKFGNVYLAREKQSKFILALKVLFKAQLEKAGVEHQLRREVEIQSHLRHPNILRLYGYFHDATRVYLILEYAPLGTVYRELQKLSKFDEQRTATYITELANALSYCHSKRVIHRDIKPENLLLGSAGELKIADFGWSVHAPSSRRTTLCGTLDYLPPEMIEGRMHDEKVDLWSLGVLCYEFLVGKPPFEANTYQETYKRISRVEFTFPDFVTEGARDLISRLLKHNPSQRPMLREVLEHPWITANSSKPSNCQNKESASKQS
Kind of series: Ki determination for the inhibition of Aurora-2 (coupled enzyme assay). In kind it is biochemical. Conditions: 70 nM Aurora-2, 30° C. How it is done: Compounds were screened in the following manner for their ability to inhibit Aurora-2 using a standard coupled enzyme assay (Fox et al (1998) Protein Sci 7, 2249).
To an assay stock buffer solution containing 0.1M HEPES 7.5, 10 mM MgCl2, 1 mM DTT, 25 mM NaCl, 2.5 mM phosphoenolpyruvate, […], 30 mg/ml pyruvate kinase, 10 mg/ml lactate dehydrogenase, […], and 800 μM peptide (LRRASLG, American Peptide, Sunnyvale, Calif.) was added a DMSO solution of a compound of the present invention to a final concentration of 30 μM. The resulting mixture was incubated at 30° C. for 10 min. The reaction was initiated by the addition of 10 μL of Aurora-2 stock solution to give a final concentration of 70 nM in the assay. The rates of reaction were obtained by monitoring absorbance at 340 nm over a 5 minute read time at 30° C. using a BioRad Ultramark plate reader (Hercules, Calif.). The Ki values were determined from the rate data as a function of inhibitor concentration.

The structures appear in SMILES notation. Some results are limits rather than exact numbers.

One may read the Ki as the dissociation constant of the complex between target and ligand, obtained from inhibition or displacement. One may read the melting point as the temperature of the solid-liquid transition.

T1 sequence (P49841 whole entry, the tested form may be a part): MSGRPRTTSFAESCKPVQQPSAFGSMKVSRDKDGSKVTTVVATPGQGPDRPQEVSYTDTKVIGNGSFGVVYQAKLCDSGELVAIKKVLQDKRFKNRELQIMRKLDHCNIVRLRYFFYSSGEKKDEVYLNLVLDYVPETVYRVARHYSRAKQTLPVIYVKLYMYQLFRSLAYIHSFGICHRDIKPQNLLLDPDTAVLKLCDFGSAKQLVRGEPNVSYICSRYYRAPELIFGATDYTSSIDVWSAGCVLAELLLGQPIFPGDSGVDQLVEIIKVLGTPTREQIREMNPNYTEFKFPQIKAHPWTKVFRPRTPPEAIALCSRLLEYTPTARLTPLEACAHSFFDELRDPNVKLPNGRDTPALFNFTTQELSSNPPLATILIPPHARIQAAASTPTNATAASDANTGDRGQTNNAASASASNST

As to `CC(=O)Nc1ccc(Sc2nc(Nc3cc(C)n[nH]3)cc(-c3ccc(OCCCN(C)C)cc3)n2)cc1` [IIIa-43, {2-(4-Acetamido-phenyl-sulfanyl)-6-[4-(3-dimethylamino-propoxy)-phenyl]-pyrimidin-4-yl}-(5-methyl-2H-pyrazol-3-yl)-amine], the melting point lay in the range of 219 to 222 °C. On GSK-3β (AA 1-420), the Ki is 1000 to 7000 nM. The same molecule gave a Ki at Aurora-2 of 1000 to 10000 nM.
`CCc1ccccc1Sc1nc(Nc2cc(C)[nH]n2)c2ccccc2n1` [IIa-5, [2-(2-Ethylphenylsulfanyl)-quinazolin-4-yl]-(5-methyl-2H-pyrazol-3-yl)-amine] had a melting point of 205 to 208 °C. The molecule further registered an inhibition constant Ki on GSK-3β (AA 1-420) of 100 to 1000 nM. The same molecule displayed an inhibitory constant (Ki) on Aurora-2 of under 100 nM.
In turn, `Cc1cc(Nc2nc(Sc3nccn3C)nc3ccccc23)n[nH]1` [IIa-10, [2-(1-Methylimidazol-2-ylsulfanyl)-quinazolin-4-yl]-(5-methyl-2H-pyrazol-3-yl)-amine] had a melting point of 255 to 256 °C. The same molecule had a Ki on GSK-3β (AA 1-420) of 1000 to 7000 nM. Also, the inhibition constant (Ki) on Aurora-2 fell in the range of 1000 to 10000 nM.
The molecule `Cc1cc(Nc2nc(Sc3ccccc3O)nc3ccccc23)n[nH]1` [IIa-11, [2-(2-Hydroxyphenylsulfanyl)-quinazolin-4-yl]-(5-methyl-2H-pyrazol-3-yl)-amine] yielded a melting point of 273 to 275 °C. The molecule further registered a Ki at GSK-3β (AA 1-420) of under 100 nM. This molecule returned a Ki at Aurora-2 of under 100 nM.
As for `Cc1cc(Nc2nc(Sc3ccc(F)cc3F)nc3ccccc23)n[nH]1` [IIa-12, [2-(2,4-Difluorophenylsulfanyl)-quinazolin-4-yl]-(5-methyl-2H-pyrazol-3-yl)-amine], the melting point lay within 256 to 258 °C. This molecule gave a Ki at GSK-3β (AA 1-420) of under 100 nM. The molecule further came in with a Ki on Aurora-2 of under 100 nM.
In the case of `COC(=O)c1cccc(Sc2nc(Nc3cc(C4CC4)[nH]n3)c3ccccc3n2)c1` [IIa-22, (5-Cyclopropyl-2H-pyrazol-3-yl)-[2-(3-methoxycarbonylphenylsulfanyl)-quinazolin-4-yl]-amine], the melting point lay within 224 to 225 °C. The same molecule yielded an inhibition constant (Ki) at GSK-3β (AA 1-420) of under 100 nM. In addition, on Aurora-2, the inhibitory constant (Ki) was under 100 nM.
With `O=C(O)c1cccc(Sc2nc(Nc3cc(C4CC4)[nH]n3)c3ccccc3n2)c1` [IIa-26, [2-(3-Carboxyphenylsulfanyl)-quinazolin-4-yl]-(5-cyclopropyl-2H-pyrazol-3-yl)-amine], the melting point is over 300 °C. Further, the Ki at GSK-3β (AA 1-420) was under 100 nM. Besides, on Aurora-2, the inhibitory constant (Ki) was under 100 nM.
`c1ccc2cc(Sc3nc4c(c(Nc5cc(C6CC6)[nH]n5)n3)CCCC4)ccc2c1` [IIa-29, (5-Cyclopropyl-2H-pyrazol-3-yl)-[2-(naphthalen-2-ylsulfanyl)-5,6,7,8-tetrahydroquinazolin-4-yl-]-amine] came in with a melting point of 244 °C. This molecule also displayed a Ki at GSK-3β (AA 1-420) of 100 to 1000 nM. This molecule also yielded a Ki on Aurora-2 of under 100 nM.
`c1ccc2[nH]c(Sc3nc(Nc4cc(C5CC5)[nH]n4)c4ccccc4n3)nc2c1` [IIa-34, [2-(Benzimidazol-2-ylsulfanyl)-quinazolin-4-yl]-(5-cyclopropyl-2H-pyrazol-3-yl)-amine] registered a melting point of 201 to 203 °C. For the same molecule, the inhibition constant Ki at GSK-3β (AA 1-420) lay in the range of 100 to 1000 nM. For the same molecule, at Aurora-2, the inhibition constant Ki is under 100 nM.
Regarding `COC(=O)c1ccc(Sc2nc(Nc3cc(C4CC4)[nH]n3)c3ccccc3n2)cc1` [IIa-35, (5-Cyclopropyl-2H-pyrazol-3-yl)-[2-(4-methoxycarbonylphenylsulfanyl)-quinazolin-4-yl]-amine], the melting point lay in the range of 245 to 246 °C. At GSK-3β (AA 1-420), this molecule had an inhibitory constant (Ki) of 100 to 1000 nM. At Aurora-2, this molecule registered an inhibitory constant (Ki) of under 100 nM.
The like results for `CC(=O)Nc1ccc(Sc2nc(Nc3cc(C)[nH]n3)c3cccc(OCCCN4CCOCC4)c3n2)cc1` [IIa-41, [2-(4-Acetamidophenylsulfanyl)-8-(3-morpholin-4-yl-propoxy)-quinazolin-4-yl]-(5-methyl-2H-pyrazol-3-yl)-amine] were, in that order, 262 to 264 °C, 100 to 1000 nM and under 100 nM.
`COC(=O)c1ccc(Sc2nc(Nc3cc(C)[nH]n3)c3ccccc3n2)cc1` [IIa-42, [2-(4-Methoxycarbonylphenylsulfanyl)-quinazolin-4-yl]-(5-methyl-2H-pyrazol-3-yl)-amine]: the melting point is 257 to 260 °C. The molecule also showed a Ki on GSK-3β (AA 1-420) of 100 to 1000 nM. Also, the Ki on Aurora-2 is under 100 nM.
`Cc1cc(Nc2nc(Sc3ccc(C(=O)O)cc3)nc3ccccc23)[nH]n1` [IIa-43, [2-(4-Carboxyphenylsulfanyl)-quinazolin-4-yl]-(5-methyl-2H-pyrazol-3-yl)-amine] returned a melting point of 263 to 265 °C. At GSK-3β (AA 1-420), this molecule showed a Ki of under 100 nM. Moreover, the Ki on Aurora-2 was under 100 nM.
The molecule `Cc1cc(Nc2nc(Sc3ccc(Br)cc3)nc3ccccc23)n[nH]1` [IIa-46, [2-(4-Bromophenylsulfanyl)-quinazolin-4-yl]-(5-methyl-2H-pyrazol-3-yl)-amine] displayed a melting point of over 300 °C. Moreover, the inhibition constant Ki at GSK-3β (AA 1-420) was under 100 nM. For the same molecule, at Aurora-2, the Ki is under 100 nM.
Take `Cc1cc(Nc2nc(Sc3cccc(Br)c3)nc3ccccc23)n[nH]1` [IIa-47, [2-(3-Bromophenylsulfanyl)-quinazolin-4-yl]-(5-methyl-2H-pyrazol-3-yl)-amine]: the melting point fell in the range of 280 to 281 °C. The molecule also gave an inhibition constant (Ki) on GSK-3β (AA 1-420) of under 100 nM. Also, the Ki on Aurora-2 was under 100 nM.
Molecule `Cc1cc(Nc2nc(Sc3ccc(NC(=O)C(C)C)cc3)nc3ccccc23)n[nH]1` [IIa-49, [2-(4-Isobutyrylamino-phenylsulfanyl)-quinazolin-4-yl]-(5-methyl-2H-pyrazol-3-yl)-amine] had a melting point of 285 to 287 °C. Moreover, the Ki on GSK-3β (AA 1-420) fell in the range of 1000 to 7000 nM. At Aurora-2, this molecule yielded an inhibition constant Ki of under 100 nM.
`Cc1cc(Nc2nc(Sc3ccc(NC(=O)CC(C)C)cc3)nc3ccccc23)n[nH]1` [IIa-57, [2-(4-Isobutanecarbonylamino-phenylsulfanyl)-quinazolin-4-yl]-(5-methyl-2H-pyrazol-3-yl)-amine] came in with a melting point of 281 to 282 °C. Also, the Ki on Aurora-2 was under 100 nM.
`CC(=O)Nc1ccc(Sc2nc(Nc3cc(C)[nH]n3)c3ccc(N)cc3n2)cc1` [IIa-59, [2-(4-Acetamido-phenylsulfanyl)-7-aminoquinazolin-4-yl]-(5-methyl-2H-pyrazol-3-yl)-amine] gave a melting point of 264 to 265 °C. The molecule also came in with an inhibition constant Ki on Aurora-2 of under 100 nM.
The molecule `Cc1cc(Nc2nc(Sc3ccc(NC(=O)CN4CCOCC4)cc3)nc3ccccc23)n[nH]1` [IIa-60, (5-Methyl-2H-pyrazol-3-yl)-{2-[4-(2-morpholin-4-yl-acetylamino)-phenylsulfanyl]-quinazolin-4-yl}-amine] registered a melting point of 266 to 267 °C. Besides, the Ki on Aurora-2 is under 100 nM.
`CC(=O)Nc1ccc(Sc2nc(Nc3cc(C)[nH]n3)c3cccc(OCCCN(C)C)c3n2)cc1` [IIa-73, [2-(4-Acetamidophenylsulfanyl)-8-(3-dimethylamino-propoxy)-quinazolin-4-yl]-(5-methyl-2H-pyrazol-3-yl)-amine] returned a melting point of 170 to 172 °C. The same molecule showed a Ki on Aurora-2 of under 100 nM.
On to `CC(=O)Nc1ccc(Sc2nc(Nc3cc(C)[nH]n3)c3ccc(OCCCN(C)C)cc3n2)cc1` [IIa-75, [2-(4-Acetamidophenylsulfanyl)-7-(3-dimethylamino-propoxy)-quinazolin-4-yl]-(5-methyl-2H-pyrazol-3-yl)-amine], for which the melting point lay in the range of 249 to 250 °C. This molecule had a Ki at Aurora-2 of under 100 nM.
Molecule `Cc1cc(Nc2nc(Oc3ccc4ccccc4c3)nc3ccccc23)n[nH]1` [IIb-2, (5-Methyl-2H-pyrazol-3-yl)-[2-(naphthalen-2-yloxy)-quinazolin-4-yl]-amine] had a melting point of over 300 °C. At Aurora-2, this molecule gave a Ki of under 100 nM.
As to `COc1cccc(Oc2nc(Nc3cc(C)[nH]n3)c3ccccc3n2)c1` [IIb-6, [2-(3-Methoxyphenoxy)-quinazolin-4-yl]-(5-methyl-2H-pyrazol-3-yl)-amine], the melting point was 277 to 278 °C. In addition, the inhibitory constant (Ki) at Aurora-2 is under 100 nM.
For `c1ccc(-c2cccc(Nc3nc(Nc4cc(C5CC5)[nH]n4)c4ccccc4n3)c2)cc1` [IIc-46, [2-(Biphenyl-3-ylamino)-quinazolin-4-yl]-(5-cyclopropyl-2H-pyrazol-3-yl)-amine], in that order: 153 °C and under 100 nM.
For `Cc1cc(Nc2nc(COc3ccc(Cl)cc3)nc3c2CCCC3)n[nH]1` [IId-6, [2-(4-Chlorophenoxymethyl)-5,6,7,8-tetrahydro-quinazolin-4-yl]-(5-methyl-2H-pyrazol-3-yl)-amine], the inhibition constant Ki on GSK-3β (AA 1-420) and on Aurora-2 was 100 to 1000 nM throughout.

The values are drawn from patent publication US6653300B2, “Pyrazole compounds useful as protein kinase inhibitors” (Vertex Pharmaceuticals Incorporated, priority 2000, dated 2003).
